# Data as given in US5099015A, “Trifluoromethyl 1-carba(1-dethia)cephems” (Eli Lilly and Company, priority 1991, dated 1992).
# Like-named read-outs stand apart in the source and are kept apart here.
# Assays:
# Assay in all cases: Agar dilution antibacterial test (MIC)
# Format in all cases: cell-based
# [1] = test system: Serratia SE3
# Experimental: (§1) Fresh overnight cultures of test bacteria were diluted to approximately 1x(10)4 cells/microliter and applied in one microliter volumes to the surfaces of the agar plates. The innoculated plates were incubated overnight at 35° C. in ambient air. Minimum inhibitory concentration (mic) endpoints were recorded as the lowest antibiotic concentrations in micrograms per milliliter that inhibited the development of visible growth on the plates. The following summarizes the results of such tests with the compounds of the examples listed above.
# [2] = test system: Staphylococcus aureus V41
# Experimental: as §1
# [3] = test system: Morg morg PR15
# Experimental: as §1
# [4] = test system: Enterobacter cloacae 265A
# Experimental: as §1
# [5] = test system: Salmonella X514
# Experimental: as §1
# [6] = test system: Proteus rett C24; settings: Proteus rett C24
# Experimental: as §1
# [7] = test system: Proteus incon PR33
# Experimental: as §1
# [8] = test system: Enterococcus faecium X66
# Experimental: as §1
# [9] = test system: Citro CF17
# Experimental: as §1
# [10] = test system: Klebsiella pneumoniae X68
# Experimental: as §1
# [11] = test system: Enterococcus faecalis 2041
# Experimental: as §1
# [12] = test system: Escherichia coli N10
# Experimental: as §1
# [13] = test system: Salmonella 1335
# Experimental: as §1
# [14] = test system: Staphylococcus epidermidis EPI270
# Experimental: as §1
# [15] = test system: Klebsiella pneumoniae KAE
# Experimental: as §1
# [16] = test system: Klebsiella pneumoniae X26
# Experimental: as §1
# [17] = test system: Staphylococcus pneumoniae Park 1
# Experimental: as §1
# [18] = test system: Serratia X99
# Experimental: as §1
# [19] = test system: Staphylococcus epidermidis 222
# Experimental: as §1
# [20] = test system: Escherichia coli EC14
# Experimental: as §1
# [21] = test system: Staphylococcus aureus S13E
# Experimental: as §1
# [22] = test system: Enterobacter aerogenes C32
# Experimental: as §1
# [23] = test system: Staphylococcus aureus NRRL X1.1
# Experimental: as §1
# [24] = test system: Staphylococcus aureus X400
# Experimental: as §1
# [25] = test system: Shig sonn. N9
# Experimental: as §1
# [26] = test system: Acom AC12
# Experimental: as §1
# [27] = test system: Enterobacter cloacae EB5
# Experimental: as §1
# [28] = test system: Enterobacter aerogenes EB17
# Experimental: as §1
# [29] = test system: Escherichia coli TEM
# Experimental: as §1
# [30] = test system: Haemophilus influenzae C.L.
# Experimental: as §1
# [31] = test system: Staphylococcus pyogenes C203
# Experimental: as §1
# [32] = test system: Haemophilus influenzae 76
# Experimental: as §1
# [33] = Klebsiella aerogenes, read-out: MIC
smiles,measurement,setting,value
Nc1nc(C(=NO)C(=O)N[C@@H]2C(=O)N3C(C(=O)O)=C(C(F)(F)F)CC[C@H]23)cs1 [Compound 5],MIC,[1],8 µg/mL
same,MIC,[2],2 µg/mL
same,MIC,[3],2 µg/mL
same,MIC,[4],16 µg/mL
same,MIC,[5],.015 µg/mL
same,MIC,[6],.125 µg/mL
same,MIC,[7],.25 µg/mL
same,MIC,[8],8 µg/mL
same,MIC,[9],16 µg/mL
same,MIC,[10],.06 µg/mL
same,MIC,[11],1 µg/mL
same,MIC,[12],.125 µg/mL
same,MIC,[13],.06 µg/mL
same,MIC,[14],4 µg/mL
same,MIC,[15],.06 µg/mL
same,MIC,[16],.015 µg/mL
same,MIC,[17],.015 µg/mL
same,MIC,[18],.5 µg/mL
same,MIC,[19],1 µg/mL
same,MIC,[20],.03 µg/mL
same,MIC,[21],4 µg/mL
same,MIC,[22],.25 µg/mL
same,MIC,[23],1 µg/mL
same,MIC,[24],8 µg/mL
same,MIC,[25],.06 µg/mL
same,MIC,[26],2 µg/mL
same,MIC,[27],.125 µg/mL
same,MIC,[28],.06 µg/mL
same,MIC,[29],.03 µg/mL
"N[C@@H](C(=O)N[C@@H]1C(=O)N2C(C(=O)O)=C(C(F)(F)F)CC[C@H]12)c1ccc(F)cc1 [Compound 3, [6R,7S]-7-β-[D-α-(amino)-4-fluorophenylacetylamino]-3-trifluoromethyl-1-carba-1-dethia-3-cephem-4-carboxylic acid]",MIC,[1]; read-out: MIC,32 µg/mL
same,MIC,[2]; read-out: MIC,16 µg/mL
same,MIC,[3]; read-out: MIC,16 µg/mL
same,MIC,[4]; read-out: MIC,8 µg/mL
same,MIC,[5]; read-out: MIC,0.5 µg/mL
same,MIC,[6]; read-out: MIC,8 µg/mL
same,MIC,[7]; read-out: MIC,8 µg/mL
same,MIC,[8]; read-out: MIC,32 µg/mL
same,MIC,[9]; read-out: MIC,8 µg/mL
same,MIC,[10]; read-out: MIC,1 µg/mL
same,MIC,[11]; read-out: MIC,32 µg/mL
same,MIC,[12]; read-out: MIC,4 µg/mL
same,MIC,[13]; read-out: MIC,2 µg/mL
same,MIC,[14]; read-out: MIC,4 µg/mL
same,MIC,[15]; read-out: MIC,8 µg/mL
same,MIC,[16]; read-out: MIC,0.5 µg/mL
same,MIC,"[17]; PARK1, read-out: MIC",0.25 µg/mL
same,MIC,[18]; read-out: MIC,16 µg/mL
same,MIC,[19]; read-out: MIC,4 µg/mL
same,MIC,[30]; read-out: MIC,0.5 µg/mL
same,MIC,[20]; read-out: MIC,1 µg/mL
same,MIC,[31]; read-out: MIC,0.06 µg/mL
same,MIC,[21],32 µg/mL
same,MIC,[32]; read-out: MIC,1 µg/mL
same,MIC,[22]; [33],8 µg/mL
same,MIC,"[23]; NRRLX1.1, read-out: MIC",1 µg/mL
same,MIC,[24]; read-out: MIC,64 µg/mL
same,MIC,[25]; read-out: MIC,2 µg/mL
same,MIC,[26]; read-out: MIC,64 µg/mL
same,MIC,[27]; read-out: MIC,8 µg/mL
same,MIC,[28]; [33],8 µg/mL
same,MIC,[29]; read-out: MIC,1 µg/mL
"N[C@@H](C(=O)N[C@@H]1C(=O)N2C(C(=O)O)=C(C(F)(F)F)CC[C@H]12)c1ccc(O)cc1 [Compound 2, [6R,7S]-7β-[D-α-(amino)-4-hydroxyphenylacetylamino]-3-trifluoromethyl-1-carba-1-dethia-3-cephem-4-carboxylic acid]",MIC,[1]; read-out: MIC,16 µg/mL
same,MIC,[2]; read-out: MIC,7.2 µg/mL
same,MIC,[3]; read-out: MIC,26.7 µg/mL
same,MIC,[4]; read-out: MIC,2.3 µg/mL
same,MIC,[5]; read-out: MIC,0.19 µg/mL
same,MIC,[6]; read-out: MIC,6.7 µg/mL
same,MIC,[7]; read-out: MIC,2.3 µg/mL
same,MIC,[8]; read-out: MIC,32 µg/mL
same,MIC,[9]; read-out: MIC,5.3 µg/mL
same,MIC,[10]; read-out: MIC,0.6 µg/mL
same,MIC,[11]; read-out: MIC,22.4 µg/mL
same,MIC,[12]; read-out: MIC,0.85 µg/mL
same,MIC,[13]; read-out: MIC,0.58 µg/mL
same,MIC,[14]; read-out: MIC,4.4 µg/mL
same,MIC,[15]; read-out: MIC,2.3 µg/mL
same,MIC,[16]; read-out: MIC,0.3 µg/mL
same,MIC,"[17]; PARK1, read-out: MIC",0.2 µg/mL
same,MIC,[18]; read-out: MIC,4.7 µg/mL
same,MIC,[19]; read-out: MIC,2.2 µg/mL
same,MIC,[30]; read-out: MIC,0.7 µg/mL
same,MIC,[20]; read-out: MIC,0.48 µg/mL
same,MIC,[31]; read-out: MIC,0.025 µg/mL
same,MIC,[21],70.4 µg/mL
same,MIC,[32]; read-out: MIC,0.9 µg/mL
same,MIC,[22]; [33],2.08 µg/mL
same,MIC,"[23]; NRRLX1.1, read-out: MIC",0.85 µg/mL
same,MIC,[24]; read-out: MIC,102 µg/mL
same,MIC,[25]; read-out: MIC,0.58 µg/mL
same,MIC,[26]; read-out: MIC,21.3 µg/mL
same,MIC,[27]; read-out: MIC,4.3 µg/mL
same,MIC,[28]; [33],1.83 µg/mL
same,MIC,[29]; read-out: MIC,0.75 µg/mL
CCS(=O)(=O)Nc1cccc(C(N)C(=O)N[C@@H]2C(=O)N3C(C(=O)O)=C(C(F)(F)F)CC[C@H]23)c1 (some centres unmarked) [Compound 6],MIC,[1],128 µg/mL
same,MIC,[2],8 µg/mL
same,MIC,[3],16 µg/mL
same,MIC,[4],32 µg/mL
same,MIC,[5],1 µg/mL
same,MIC,[6],32 µg/mL
same,MIC,[7],16 µg/mL
same,MIC,[8],64 µg/mL
same,MIC,[9],32 µg/mL
same,MIC,[10],1 µg/mL
same,MIC,[11],32 µg/mL
same,MIC,[12],8 µg/mL
same,MIC,[13],8 µg/mL
same,MIC,[14],8 µg/mL
same,MIC,[15],32 µg/mL
same,MIC,[16],0.25 µg/mL
same,MIC,[17],0.125 µg/mL
same,MIC,[18],64 µg/mL
same,MIC,[19],4 µg/mL
same,MIC,[30],1 µg/mL
same,MIC,[20],1 µg/mL
same,MIC,[31],0.06 µg/mL
same,MIC,[21],32 µg/mL
same,MIC,[32],4 µg/mL
same,MIC,[22],16 µg/mL
same,MIC,[23],4 µg/mL
same,MIC,[24],32 µg/mL
same,MIC,[25],4 µg/mL
same,MIC,[26],64 µg/mL
same,MIC,[27],32 µg/mL
same,MIC,[28],16 µg/mL
same,MIC,[29],1 µg/mL
